Assay results published in PMC4767422, “Molecular insights into the enzymatic diversity of flavin‐trafficking protein (Ftp; formerly ApbE) in flavoprotein biogenesis in the bacterial periplasm” (MicrobiologyOpen, 2015).
Positions count from the first letter of the chain named.

Key:
Ftp_Ec [1] = biological target: T1, Ftp_Ec (Escherichia coli, UniProt P0AB85, Y79N); experiment: crystal structure, […]-1.[…] A; also inhibits FAD pyrophosphatase activity; type: binding; conditions: two Mg2+ bound; active site
T1 construct: gene apbE; recombinant, ligand-free preparation as in Deka et al. 2013a; signal peptide removed; crystal model residues about 12-341
T1 sequence (P0AB85 21-351 Y79N): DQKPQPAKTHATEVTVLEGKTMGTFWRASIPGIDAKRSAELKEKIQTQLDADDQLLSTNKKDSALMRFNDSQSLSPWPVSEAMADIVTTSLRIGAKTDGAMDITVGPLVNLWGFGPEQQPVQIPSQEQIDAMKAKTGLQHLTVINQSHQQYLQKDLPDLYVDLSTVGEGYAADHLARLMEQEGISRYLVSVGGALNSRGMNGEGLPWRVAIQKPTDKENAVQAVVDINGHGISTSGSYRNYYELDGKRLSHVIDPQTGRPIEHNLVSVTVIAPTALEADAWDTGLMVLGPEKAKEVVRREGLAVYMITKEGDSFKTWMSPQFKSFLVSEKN

Ftp_Hd = biological target: T2, Ftp_Hd ([Haemophilus] ducreyi, UniProt Q7VNU3); experiment: UV-visible spectrum of protein as isolated; type: binding; conditions: co-purified flavin, nonstoichiometric; buffer A, pH 7.5
T2 construct: gene apbE; residues 17-343, signal peptide and acylated Cys removed, N-terminal TEV-cleavable His6 tag (pSpeedET), E. coli
T2 sequence (Q7VNU3 16-342): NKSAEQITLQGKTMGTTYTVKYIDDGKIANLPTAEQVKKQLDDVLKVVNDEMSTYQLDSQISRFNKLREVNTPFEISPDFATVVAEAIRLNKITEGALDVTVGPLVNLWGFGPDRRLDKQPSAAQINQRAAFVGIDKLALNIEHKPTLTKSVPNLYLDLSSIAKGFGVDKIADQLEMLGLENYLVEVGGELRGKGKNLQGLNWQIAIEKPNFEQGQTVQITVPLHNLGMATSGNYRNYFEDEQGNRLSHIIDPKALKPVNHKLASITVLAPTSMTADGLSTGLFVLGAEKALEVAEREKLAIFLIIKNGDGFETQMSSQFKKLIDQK

Ftp_Lm = biological target: T3, Ftp_Lm (Listeria monocytogenes, UniProt A0A0H3GJF7); experiment: FAD pyrophosphatase assay, FMN fluorescence; type: biochemical; conditions: 10 uM FAD, 5 mM MgCl2, pH 7.5; single turnover
T3 construct: gene LMRG_02181; residues 22-361, signal peptide and acylated Cys removed, N-terminal TEV-cleavable His6 tag (pSpeedET), E. coli
T3 sequence (A0A0H3GJF7 21-360): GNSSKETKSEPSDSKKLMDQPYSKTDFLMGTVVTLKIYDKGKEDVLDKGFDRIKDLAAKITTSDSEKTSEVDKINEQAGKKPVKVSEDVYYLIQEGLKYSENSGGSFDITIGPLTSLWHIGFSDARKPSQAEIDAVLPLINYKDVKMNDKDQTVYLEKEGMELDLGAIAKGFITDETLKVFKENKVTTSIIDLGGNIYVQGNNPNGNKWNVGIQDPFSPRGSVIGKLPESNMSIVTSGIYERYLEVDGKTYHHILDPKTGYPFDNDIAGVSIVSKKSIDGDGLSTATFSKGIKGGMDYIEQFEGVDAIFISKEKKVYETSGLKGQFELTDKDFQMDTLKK

Ftp_Td = biological target: T4, Ftp_Td (Treponema denticola, UniProt Q73JG1); experiment: FAD pyrophosphatase assay, FMN fluorescence; type: biochemical; conditions: 10 uM FAD, 5 mM MgCl2, pH 7.5; single turnover
T4 construct: gene TDE_2614; residues 28-372, signal peptide and acylated Cys removed, N-terminal TEV-cleavable His6 tag (pSpeedET), E. coli
T4 sequence (Q73JG1 28-371): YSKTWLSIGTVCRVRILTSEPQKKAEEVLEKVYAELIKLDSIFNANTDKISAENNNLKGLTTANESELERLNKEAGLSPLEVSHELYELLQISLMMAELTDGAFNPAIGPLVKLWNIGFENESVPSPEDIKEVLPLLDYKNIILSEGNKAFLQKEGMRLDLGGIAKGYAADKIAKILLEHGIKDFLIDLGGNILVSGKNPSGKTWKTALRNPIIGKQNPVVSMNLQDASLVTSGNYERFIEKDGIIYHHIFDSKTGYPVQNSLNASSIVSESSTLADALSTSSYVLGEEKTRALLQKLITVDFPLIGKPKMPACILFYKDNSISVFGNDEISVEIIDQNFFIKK

Ftp_Ec [2] = biological target: T5, Ftp_Ec (Escherichia coli, UniProt P0AB85); experiment: fluorescence decrease on FAD binding; flavinylation gel; type: biochemical; conditions: binds FAD without hydrolysis; FMN donor to RnfG_Ec with 5 mM MgCl2, pH 7.5
T5 construct: gene apbE; recombinant, ligand-free preparation as in Deka et al. 2013a; signal peptide removed; crystal model residues about 12-341
T5 sequence (P0AB85 21-351): T1 sequence (P0AB85 21-351 Y79N) with N59Y

Ftp_Ab = biological target: T6, Ftp_Ab (Alcanivorax borkumensis, UniProt Q0VQR2); experiment: UV-visible spectrum of protein as isolated; type: binding; conditions: co-purified flavin, nonstoichiometric; buffer A, pH 7.5
T6 construct: gene apbE; residues 21-338, signal peptide and acylated Cys removed, N-terminal TEV-cleavable His6 tag (pSpeedET), E. coli
T6 sequence (Q0VQR2 20-337): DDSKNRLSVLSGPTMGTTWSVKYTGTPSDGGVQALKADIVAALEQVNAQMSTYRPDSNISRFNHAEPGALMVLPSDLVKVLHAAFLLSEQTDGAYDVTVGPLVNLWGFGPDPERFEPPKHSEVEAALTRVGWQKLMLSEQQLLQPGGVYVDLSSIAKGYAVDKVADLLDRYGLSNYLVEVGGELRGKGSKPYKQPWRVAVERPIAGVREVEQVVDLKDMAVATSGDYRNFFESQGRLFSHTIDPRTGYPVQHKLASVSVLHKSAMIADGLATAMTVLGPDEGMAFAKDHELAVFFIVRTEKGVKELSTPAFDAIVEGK

Ftp_Ef = biological target: T7, Ftp_Ef (Enterococcus faecalis, UniProt Q82Z24); experiment: FAD pyrophosphatase assay, FMN fluorescence; type: biochemical; conditions: 10 uM FAD, 5 mM MgCl2, pH 7.5; single turnover
T7 construct: gene EF_3255; residues 21-356, signal peptide and acylated Cys removed, N-terminal TEV-cleavable His6 tag (pSpeedET), E. coli
T7 sequence (Q82Z24 22-355): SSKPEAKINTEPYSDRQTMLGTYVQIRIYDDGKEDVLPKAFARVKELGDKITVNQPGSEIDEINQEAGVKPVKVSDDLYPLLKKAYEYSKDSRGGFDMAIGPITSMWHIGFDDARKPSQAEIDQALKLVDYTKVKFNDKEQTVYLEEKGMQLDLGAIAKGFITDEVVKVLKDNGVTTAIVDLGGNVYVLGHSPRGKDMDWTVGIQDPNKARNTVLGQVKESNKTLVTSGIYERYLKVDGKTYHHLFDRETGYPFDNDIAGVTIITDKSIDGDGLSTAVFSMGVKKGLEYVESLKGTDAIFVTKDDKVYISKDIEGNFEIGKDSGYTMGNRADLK

NqrC_So = biological target: T8, NqrC_So (Shewanella oneidensis, UniProt Q8EID8); experiment: crystal structure, […] A; type: binding; conditions: covalent phosphoester-threonyl-FMN at T225, formed in vitro by Ftp_So from FAD and Mg2+
T8 construct: gene nqrC; residues 32-265, without N-terminal membrane anchor; recloned into pProEx HTb; His tag cut with TEV after flavinylation
T8 sequence (Q8EID8 32-264): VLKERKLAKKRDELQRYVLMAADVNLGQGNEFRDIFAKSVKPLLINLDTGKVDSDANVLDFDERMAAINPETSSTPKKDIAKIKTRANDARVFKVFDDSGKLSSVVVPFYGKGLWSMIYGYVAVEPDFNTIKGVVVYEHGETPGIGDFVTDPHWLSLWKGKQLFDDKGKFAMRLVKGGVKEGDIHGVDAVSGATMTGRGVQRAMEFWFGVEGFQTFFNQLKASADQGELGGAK

## Nc1ncnc2c1ncn2[C@@H]1O[C@H](COP(=O)(O)OP(=O)(O)O)[C@@H](O)[C@H]1O [ADP]
Ftp_Ec [1]
  crystal structure, 1.85-1.90 A; also inhibits FAD pyrophosphatase activity: we obtained a crystal structure of the ADP complex with two metals bound

## Cc1cc2nc3c(=O)[nH]c(=O)nc-3n(C[C@H](O)[C@H](O)[C@H](O)COP(=O)(O)OP(=O)(O)OC[C@H]3O[C@@H](n4cnc5c(N)ncnc54)[C@H](O)[C@@H]3O)c2cc1C [FAD]
Ftp_Hd
  UV-visible spectrum of protein as isolated: purified as yellow, flavin‐bound forms (holoproteins)
Ftp_Lm
  FAD pyrophosphatase assay, FMN fluorescence: all nonyellow Ftps showed single‐turnover kinetics of FAD pyrophosphatase activity
Ftp_Td
  FAD pyrophosphatase assay, FMN fluorescence: all nonyellow Ftps showed single‐turnover kinetics of FAD pyrophosphatase activity
Ftp_Ec [2]
  fluorescence decrease on FAD binding; flavinylation gel: wild‐type Ftp_Ec (in orange) binds FAD as demonstrated by a decrease in the emission fluorescence
Ftp_Ab
  UV-visible spectrum of protein as isolated: purified as yellow, flavin‐bound forms (holoproteins)
Ftp_Ef
  FAD pyrophosphatase assay, FMN fluorescence: all nonyellow Ftps showed single‐turnover kinetics of FAD pyrophosphatase activity

## Cc1cc2nc3c(=O)[nH]c(=O)nc-3n(C[C@H](O)[C@H](O)[C@H](O)COP(=O)(O)O)c2cc1C [FMN]
NqrC_So
  crystal structure, 1.76 A: The modified threonine (T225) lies at the N‐terminal end of the C‐terminal alpha helix
